Measured values from US20060217418A1, “Substituted alkyl amido piperidines” (priority 2001, published 2006).

What follows are compounds tested against T1, rat MCH1 receptor (Rattus norvegicus, UniProt P97639) (assay: Radioligand binding assay at cloned rat MCH1 receptor ([3H]Compound A)). Conditions: cloned rat MCH1, Peakr293 cell membranes, 0.08 nM [3H]Compound A, 25° C., 90 minutes; read-out: Ki(MCH-1).
T1 construct: operatively linked to DNA encoding the rat MCH1 receptor so as to permit expression thereof; expressed in transfected cells; host or cells: Human embryonic kidney Peak rapid 293 (Peakr293) cells, transient calcium phosphate transfection, membranes
T1 sequence (P97639 whole entry): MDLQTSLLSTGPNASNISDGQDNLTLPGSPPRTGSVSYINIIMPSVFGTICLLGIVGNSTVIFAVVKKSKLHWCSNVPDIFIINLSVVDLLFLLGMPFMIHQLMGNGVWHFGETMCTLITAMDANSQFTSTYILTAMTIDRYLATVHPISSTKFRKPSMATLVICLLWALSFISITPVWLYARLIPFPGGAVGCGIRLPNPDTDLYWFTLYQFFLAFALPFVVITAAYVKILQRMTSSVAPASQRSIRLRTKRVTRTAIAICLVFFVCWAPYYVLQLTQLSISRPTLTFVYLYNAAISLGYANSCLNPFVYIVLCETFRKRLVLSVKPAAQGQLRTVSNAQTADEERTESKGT

Row | Ki | Structure (SMILES)
1 | 33.2 nM | CC(C)OC(=O)Nc1cccc(C2CCN(CCCNC(=O)C(c3ccccc3)c3ccccc3)CC2)c1 [Example 144, Isopropyl 3-(1-{3-[(Diphenylacetyl)Amino]Propyl}-4-Piperidinyl) Phenylcarbamate]
2 | 1.1 nM | CC(C)C(=O)Nc1cc(C2CCN(CCCNC(=O)C(c3ccc(F)cc3)c3ccc(F)cc3)CC2)c(F)cc1F [Example 165, N-{5-[1-(3-{[bis(4-fluorophenyl)acetyl]amino}propyl)-4-piperidinyl]-2,4-difluorophenyl}-2-methylpropanamide]
3 | 2.5 nM | CC(C)C(=O)Nc1cncc(C2CCN(CCCNC(=O)C(c3ccc(F)cc3)c3ccc(F)cc3)CC2)c1 [Example 172, N-{5-[1-(3-{[bis(4-fluorophenyl)acetyl]amino}propyl)-4-piperidinyl]-3-pyridinyl}-2-methylpropanamide]
4 | 7.9 nM | CC(C)C(=O)Nc1cccc(C2CCN(CCCNC(=O)C3(c4ccc(F)cc4)CCCCC3)CC2)c1 [Example 40, 1-(4-FLUOROPHENYL)-N-(3-{4-[3-(ISOBUTYRYLAMINO)PHENYL]-1-PIPERIDINYL} PROPYL)CYCLOHEXANECARBOXAMIDE]
5 | 28.4 nM | CC(C)C(=O)Nc1cccc(C2CCN(CCCNC(=O)C3(c4ccc(F)cc4Cl)CCCC3)CC2)c1 [Example 38]
6 | 11.8 nM | CC(C)C(=O)Nc1ccc(F)c(C2CCN(CCCNC(=O)C3(c4ccc(F)cc4Cl)CCCC3)CC2)c1 [Example 137, 1-(2-CHLORO-4-FLUOROPHENYL)-N-(3-{4-[2-FLUORO-5-(ISOBUTYRYLAMINO) PHENYL]-1-PIPERIDINYL}PROPYL)CYCLOPENTANECARBOXAMIDE]
7 | 2.6 nM | Cc1ccc(NC(=O)C(C)C)cc1C1CCN(CCCNC(=O)C(C)(c2ccccc2)c2ccccc2)CC1 [Example 96]
8 | 3.6 nM | CCCC(=O)Nc1cccc(C2CCN(CCCNC(=O)C(c3ccccc3)(c3ccccc3)c3ccccc3)CC2)c1 [Example 97]
9 | 12.1 nM | Cc1ccc(NC(=O)C(C)C)cc1C1CCN(CCCNC(=O)[C@@H](C)c2ccc(F)cc2)CC1 [Example 168, (2S)-2-(4-fluorophenyl)-N-(3-{4-[5-(isobutyrylamino)-2-methylphenyl]-1-piperidinyl}propyl) propanamide]
10 | 101 nM | CCCC(=O)Nc1cc(C2CCN(CCCNC(=O)C3(c4ccc(F)cc4)CCCC3)CC2)ccc1F [Example 107]
11 | 2.9 nM | Cc1ccc(NC(=O)C(C)C)cc1C1CCN(CCCNC(=O)C(C)(C)c2ccc(Cl)cc2)CC1 [Example 91]
12 | 8.9 nM | CCC(=O)Nc1cccc(C2CCN(CCCNC(=O)C(CC)(c3ccccc3)c3ccccc3)CC2)c1 [Example 15, 2,2-DIPHENYL-N-(3-{4-[3-(PROPIONYLAMINO)PHENYL]-1-PIPERIDINYL}PROPYL) BUTANAMIDE]
13 | 144 nM | CC(C)C(=O)Nc1ccc(C2CCN(CCCNC(=O)C(c3ccccc3)c3ccccc3)CC2)cc1 [Example 148]
14 | 32.4 nM | CC(C)C(=O)Nc1cccc(C2CCN(CCCNC(=O)C3(c4ccc(Cl)cc4)CCC3)CC2)n1 [Example 73, 1-(4-CHLOROPHENYL)-N-(3-{4-[6-(ISOBUTYRYLAMINO)-2-PYRIDINYL]-1-PIPERIDINYL} PROPYL)CYCLOBUTANECARBOXAMIDE]
15 | 8.6 nM | CC(C)C(=O)Nc1cccc(C2CCN(CCCNC(=O)C(c3ccccc3)(c3ccccc3)c3ccccc3)CC2)n1 [Example 82]
16 | 18.7 nM | Cc1ccc(NC(=O)C(C)C)cc1C1CCN(CCCNC(=O)[C@H](C)c2ccc(Cl)cc2)CC1 [Example 167]
17 | 48 nM | CC(C)C(=O)Nc1cccc(C2CCN(CCCNC(=O)C3(c4ccc(Cl)cc4)CC3)CC2)n1 [Example 76, 1-(4-CHLOROPHENYL)-N-(3-{4-[6-(ISOBUTYRYLAMINO)-2-PYRIDINYL]-1-PIPERIDINYL} PROPYL)CYCLOPROPANECARBOXAMIDE]
18 | 10.2 nM | O=C(Nc1cccc(C2CCN(CCCNC(=O)C3(c4ccc(F)cc4)CCCC3)CC2)c1)C1CC1 [Example 121, N-[3-(4-{3-[(CYCLOPROPYLCARBONYL)AMINO]PHENYL}-1-PIPERIDINYL) PROPYL]-1-(4-FLUOROPHENYL)CYCLOPENTANECARBOXAMIDE]
19 | 3 nM | CCN(CCCN1CCC(c2cccc(NC(=O)C(C)C)c2)CC1)C(=O)C(c1ccccc1)c1ccccc1 [Example 126]
20 | 4 nM | CC(C)C(=O)Nc1cccc(C2CCN(CCCNC(=O)C3(c4ccc(Cl)cc4)CCCCC3)CC2)c1 [Example 45, 1-(4-CHLOROPHENYL)-N-(3-{4-[3-(ISOBUTYRYLAMINO)PHENYL]-1-PIPERIDINYL} PROPYL)CYCLOHEXANECARBOXAMIDE]
21 | 45.9 nM | CCC(=O)Nc1cccc(C2CCN(CCCNC(=O)C3(c4ccc(Cl)cc4)CCC3)CC2)c1 [Example 58, 1-(4-CHLOROPHENYL)-N-(3-{4-[3-PROPIONYLAMINO)PHENYL]-1-PIPERIDINYL} PROPYL)CYCLOBUTANECARBOXAMIDE]
22 | 3.1 nM | Cc1ccc(NC(=O)C(C)C)cc1C1CCN(CCCNC(=O)C(c2ccccc2)(c2ccccc2)c2ccccc2)CC1 [Example 94]

Row | Ki | Structure (SMILES)
23 | 42 nM | CC(C)OC(=O)Nc1cccc(C2CCN(CCCNC(=O)C3(c4ccc(F)cc4Cl)CCCCC3)CC2)c1 [Example 147, ISOPROPYL 3-{1-[3-({[1-(2-CHLORO-4-FLUOROPHENYL)CYCLOHEXYL]CARBONYL} AMINO)PROPYL]-4-PIPERIDINYL}PHENYLCARBAMATE]
24 | 7.7 nM | CCCC(=O)Nc1cccc(C2CCN(CCCNC(=O)C(C)(C)c3ccc(Cl)cc3)CC2)c1 [Example 80]
25 | 11.2 nM | CCCC(=O)Nc1cccc(C2CCN(CCCNC(=O)C3(c4ccc(F)cc4)CCCC3)CC2)c1 [Example 101, N-(3-{4-[3-(BUTYRYLAMINO)PHENYL]-1-PIPERIDINYL}PROPYL)-1-(4-FLUOROPHENYL) CYCLOPENTANECARBOXAMIDE]
26 | 24.7 nM | Cc1ccc(NC(=O)C(C)C)cc1C1CCN(CCCNC(=O)Cc2ccc(F)cc2)CC1 [Example 175, N-{3-[1-(3-{[(4-fluorophenyl)acetyl]amino}propyl)-4-piperidinyl]-4-methylphenyl}-2-methyl propanamide]
27 | 12.6 nM | CC(C)C(=O)Nc1cccc(C2CCN(CCCNC(=O)C3(c4ccc(Cl)cc4)CCCC3)CC2)n1 [Example 84]
28 | 33.4 nM | CN(C)C(=O)Nc1cccc(C2CCN(CCCNC(=O)C(c3ccc(F)cc3)c3ccc(F)cc3)CC2)c1 [Example 139]
29 | 18.9 nM | CC(C(=O)NCCCN1CCC(c2cccc(NC(=O)C3CC3)c2)CC1)c1ccc(Cl)cc1 (centres unmarked) [Example 116, N-{3-[1-(3-{[2-(4-CHLOROPHENYL)PROPANOYL]AMINO}PROPYL)-4-PIPERIDINYL] PHENYL}CYCLOPROPANECARBOXAMIDE]
30 | 26.7 nM | CC(=O)Nc1cccc(C2CCN(CCCNC(=O)C3(c4ccc(F)cc4)CCCCC3)CC2)c1 [Example 70, N-(3-{4-[3-(ACETYLAMINO)PHENYL]-1-PIPERIDINYL}PROPYL)-1-(4-FLUORO PHENYL)CYCLOHEXANECARBOXAMIDE]
31 | 8.6 nM | CC[C@@H](C(=O)NCCCN1CCC(c2cc(NC(=O)C(C)C)ccc2C)CC1)c1ccccc1 [Example 162, (2R)-N-(3-{4-[5-(isobutyrylamino)-2-methylphenyl]-1-piperidinyl}propyl)-2-phenylbutan amide]
32 | 467 nM | CCCC(=O)Nc1ccc(C2CCN(CCCNC(=O)C(c3ccccc3)c3ccccc3)CC2)cc1 [Example 149]
33 | 4.9 nM | Cc1ccc(NC(=O)C(C)C)cc1C1CCN(CCCNC(=O)C2(c3ccc(F)cc3)CCCC2)CC1 [Example 93]
34 | 39.9 nM | CC(C)C(=O)Nc1cccc(C2CCN(CCCNC(=O)C3(c4ccc(Cl)cc4Cl)CC3)CC2)c1 [Example 41, 1-(2,4-DICHLOROPHENYL-N-(3-{4-[3-(ISOBUTYRYLAMINO)PHENYL]-1-PIPERIDINYL} PROPYL)CYCLOPROPANECARBOXAMIDE]
35 | 52.2 nM | CC(C)C(=O)Nc1cccc(C2CCN(CCCNC(=O)C(C)c3ccc(Cl)cc3)CC2)n1 (centres unmarked) [Example 90, 2-(4-CHLOROPHENYL)-N-(3-{4-[6-(ISOBUTYRYLAMINO)-2-PYRIDINYL]-1-PIPERIDINYL} PROPYL)PROPANAMIDE]
36 | 6.7 nM | CC(=O)Nc1cccc(C2CCN(CCCNC(=O)C3(c4ccc(Cl)cc4)CCCC3)CC2)c1 [Example 78, N-(3-{4-[3-(ACETYLAMINO)PHENYL]-1-PIPERIDINYL}PROPYL)-1-(4-CHLOROPHENYL) CYCLOPENTANECARBOXAMIDE]
37 | 24.4 nM | Cc1ccc(NC(=O)C(C)C)cc1C1CCN(CCCNC(=O)[C@@H](C)c2ccccc2)CC1 [Example 161, 2-methyl-N-{4-methyl-3-[1-(3-{[(2S)-2-phenylpropanoyl]amino}propyl)-4-piperidinyl]phenyl} propanamide]
38 | 1.8 nM | O=C(Nc1cccc(C2CCN(CCCNC(=O)C(c3ccccc3)c3ccccc3)CC2)c1)C1CC1 [Example 17]
39 | 48.7 nM | CC(C)C(=O)Nc1ccc(F)c(C2CCN(CCCNC(=O)C(F)(F)c3ccccc3)CC2)c1 [Example 136]
40 | 14.8 nM | CC(C)C(=O)Nc1cc(C2CCN(CCCNC(=O)C(C)(C)c3ccc(Cl)cc3)CC2)ccc1F [Example 49]
41 | 0.8 nM | O=C(Nc1cccc(C2CCN(CCCNC(=O)C(c3ccc(Cl)cc3)c3ccc(Cl)cc3)CC2)c1)C1CC1 [Example 113, N-{3-[1-(3-{[2,2-BIS(4-CHLOROPHENYL)ACETYL]AMINO}PROPYL)-4-PIPERIDINYL] PHENYL}CYCLOPROPANECARBOXAMIDE]
42 | 19.5 nM | CC(C)C(=O)Nc1cccc(C2CCN(CCCNC(=O)C(C)c3ccc(Cl)cc3)CC2)c1 (centres unmarked) [Example 37, 2-(4-CHLOROPHENYL)-N-(3-{4-[3-(ISOBUTYRYLAMINO)PHENYL]-1-PIPERIDINYL} PROPYL)PROPANAMIDE]
43 | 124 nM | CC(C)C(=O)Nc1cccc(C2CCN(CCCNC(=O)C(F)(F)c3ccccc3)CC2)c1 [Example 125, N-{3-[1-(3{[DIFLUORO(PHENYL)ACETYL]AMINO}PROPYL)-4-PIPERIDINYL] PHENYL}2-METHYLPROPANAMIDE]
44 | 34.3 nM | CC(C)C(=O)Nc1cccc(C2CCN(CCCNC(=O)C(C)c3ccc(F)cc3)CC2)c1 (centres unmarked) [Example 42, 2-(4-FLUOROPHENYL)-N-(3-{4-[3-(ISOBUTYRYLAMINO)PHENYL]-1-PIPERIDINYL} PROPYL)PROPANAMIDE]
